Where two headings read alike, the source gives them in different places.
Legend:
[1] = target: T1, peroxidase activity (human TPO) in HEK-TPOA7 cell lysate (Homo sapiens, UniProt P07202); test: TPO luminol (Lumi) assay, HEK-TPOA7 cell lysate; type: biochemical
T1 construct: We have transfected the full length of TPO, which is 933 amino acids; expressed in transfected cells; host or cells: HEK293T (clone HEK-TPOA7), lentiviral transduction, CMV promoter
T1 sequence (P07202 19-933): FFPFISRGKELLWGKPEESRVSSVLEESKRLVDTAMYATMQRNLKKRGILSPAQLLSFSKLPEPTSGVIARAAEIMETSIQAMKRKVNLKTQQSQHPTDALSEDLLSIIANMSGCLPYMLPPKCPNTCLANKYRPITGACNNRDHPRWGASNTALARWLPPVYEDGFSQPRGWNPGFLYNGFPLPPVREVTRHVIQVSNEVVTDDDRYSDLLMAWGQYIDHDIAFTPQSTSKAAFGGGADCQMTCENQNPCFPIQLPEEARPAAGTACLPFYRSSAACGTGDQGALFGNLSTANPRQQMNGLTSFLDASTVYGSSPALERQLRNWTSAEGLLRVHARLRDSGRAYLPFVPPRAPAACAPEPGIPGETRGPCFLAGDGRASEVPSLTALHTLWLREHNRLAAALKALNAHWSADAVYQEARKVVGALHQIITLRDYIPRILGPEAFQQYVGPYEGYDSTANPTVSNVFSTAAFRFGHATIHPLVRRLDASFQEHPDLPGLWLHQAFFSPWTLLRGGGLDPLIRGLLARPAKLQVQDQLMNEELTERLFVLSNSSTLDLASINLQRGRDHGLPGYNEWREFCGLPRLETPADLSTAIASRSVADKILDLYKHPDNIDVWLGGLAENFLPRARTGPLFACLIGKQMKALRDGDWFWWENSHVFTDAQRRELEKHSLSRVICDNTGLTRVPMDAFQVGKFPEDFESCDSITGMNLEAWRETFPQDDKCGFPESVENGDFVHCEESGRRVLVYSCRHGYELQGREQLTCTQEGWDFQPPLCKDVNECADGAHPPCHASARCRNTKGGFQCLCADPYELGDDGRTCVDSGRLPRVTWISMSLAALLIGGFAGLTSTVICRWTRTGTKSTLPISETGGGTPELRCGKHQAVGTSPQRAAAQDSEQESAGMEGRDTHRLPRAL
Text: (§1) A human TPO (hTPO) sequence was obtained from NCBI (NM_000547.5) and it was used for the production of lentiviral vector by VectorBuilder (Malvern, USA) containing the gene of interest under the transcriptional control of CMV promotor and EGFP gene linked with puromycin resistance gene under control of EFS promotor (pLV[Exp]-CMV > {NM_000547_5}-EFS > EGFP:T2A:Puro). The purified vector was used to produce lentiviral particles in Lenti-X cell line (TakaraBio Inc., Göteborg, Sweden). […] The medium was replaced 3 h after exposure. The conditioned lentiviral medium was harvested 48 and 72 h later, frozen and stored at − 80 °C. HEK293T cells were exposed to the conditioned lentiviral medium supplemented with Polybrene (10 µg/mL, Merck, Prague, Czech Republic). After 24 h, the medium was replaced with fresh medium with puromycin (Invivogen, Toulouse, France) as a selection factor. After the puromycin treatment, cells were sorted on a FACS sorter FACSAria Fusion (BD Biosciences, Prague, Czech Republic) to obtain GFP-expressing cell clones that were further characterized.

[2] = target: T2, human TPO (HEK-TPOA7 cell lysate) (Homo sapiens, UniProt P07202); test: AUR-TPO assay, HEK-TPOA7 cell lysate; type: biochemical
T2 construct: We have transfected the full length of TPO, which is 933 amino acids; expressed in transfected cells; host or cells: HEK293T (clone HEK-TPOA7), lentiviral transduction, CMV promoter
T2 sequence (P07202 19-933): T1 sequence (P07202 19-933)
Text: as §1
Lower final volume and concentration of H2O2 were used. […] Nonspecific influence of the chemicals themselves on the fluorescence signal was assessed by measuring the fluorescence signal after co-incubating the chemicals (30 min at 37 °C) with 0.3 µM Resorufin and 40 µM H2O2 with the same excitation/emission spectra as with the AUR.
Test of the effect of H2O2 concentration on the TPO activity measurement in the AUR assay: To assess the impact of H2O2 level on the AUR assay, a subset of chemicals (Table S6) was subjected to analysis at two H2O2 concentrations, 40 µM and 300 µM, to evaluate any variance in response.

[3] = tested on: peroxidase activity (TPO) in Nthy-ori 3-1 cell lysate
Experimental: (§2) Briefly, the cells were washed with phosphate-buffered saline (PBS), scraped, resuspended in PBS, and centrifuged for 5 min at 150 rcf. The supernatant was discarded, the pellet was lysed with 0.1% m/v sodium deoxycholate (DC, in PBS) and incubated on ice for 20 min. Lysed cells were centrifuged for 5 min at 12,000 rcf to extract the soluble protein fraction. The supernatant protein concentration was measured using the Bio-Rad DC-protein assay following the manufacturer’s protocol. The cell lysates were kept at − 80 °C for longer-term storage.
(§3) It was performed in the white 96-well plates with total volume of reaction mixture 200 μL per well containing 100 μL cell lysate with protein content of 0.12 mg/mL (final 0.06 mg/mL), 100 μl GNE solution [1 M glycine–NaOH (pH 9.0), 1 mM EDTA] with the test chemical in MeOH (1% MeOH final concentration). The plate was incubated for 30 min with gentle shaking at 37 °C.
(§4) For the data analysis, GraphPad Prism™ (GraphPad Software, San Diego, USA) was used for curve-fitting and IC50 or IC20 calculation. The signal (RLUs or fluorescence intensity) from the wells-containing cell lysate and chemical was background corrected (average RLUs or fluorescence intensity of lysate-free wells), then normalized to the solvent control (100% activity). Fold change of signal intensity was calculated by dividing the signal from cell lysate-containing wells by the signal from the background (average of cell lysate-free wells).

TPO (CHO-TPO) = tested on: TPO (CHO-TPO); parameters: method as in Dong et al. (2020); details: ref Dong et al. (2020); read-out: AUR assay IC50, CHO-TPO; cited from earlier work
TPO (LentiX-TPO) = tested on: TPO (LentiX-TPO); parameters: method as in Dong et al. (2020); details: ref Dong et al. (2020); read-out: AUR assay IC50, LentiX-TPO; cited from earlier work
[4] = tested on: peroxidase activity (TPO) in FRTL-5 cell lysate; test: TPO luminol (Lumi) assay, FRTL-5 cell lysate
Experimental: The FRTL-5 (RRID:CVCL_0265), a spontaneously immortalized rat thyroid follicular cell line obtained from Sigma-Aldrich, was cultured in Coon F12 medium (Sigma-Aldrich) supplemented with L-Glutamine, hydrocortisone, somatostatin, TSH and 10% FBS.
(§5) HEPES solution (Sigma-Aldrich) was added to balance the pH.
as §2, §3
For the data analysis, GraphPad Prism™ (GraphPad Software, San Diego, USA) was used for curve-fitting and IC50 or IC20 calculation. The signal (RLUs or fluorescence intensity) from the wells-containing cell lysate and chemical was background corrected (average RLUs or fluorescence intensity of lysate-free wells), then normalized to the solvent control (100% activity).

[5] = tested on: peroxidase activity in HEK293T cell lysate (no TPO expression); test: TPO luminol (Lumi) assay, HEK293T cell lysate
Experimental: The HEK293T (RRID:CVCL_0063), a human embryonal kidney SV40 transformed immortalized cell line obtained from ATCC, as well as the derived TPO-transfected HEK293T cell line, were cultured in DMEM High Glucose media (Biosera, BioTech) supplemented with 10% FBS.
as §5, §2, §3, §4

[6] = tested on: TPO (rat thyroid microsomes); parameters: method as in Friedman et al. 2016; details: microsomes from 120 pooled rat thyroids; ref Friedman et al. 2016; cited from earlier work
[7] = tested on: peroxidase activity (TPO) in Nthy-ori 3-1 cell lysate; parameters: method as in Jomaa et al. (2015); details: ref Jomaa et al. (2015); read-out: Lumi assay IC50, Nthy-ori 3-1; cited from earlier work
TPO (Nthy-ori 3-1) = tested on: TPO (Nthy-ori 3-1); parameters: method as in Jomaa et al. (2015); details: ref Jomaa et al. (2015); read-out: AUR assay IC50, Nthy-ori 3-1; cited from earlier work
[8] = tested on: peroxidase activity (TPO) in Nthy-ori 3-1 cell lysate; test: TPO luminol (Lumi) assay, Nthy-ori 3-1 cell lysate; details: read-out: Lumi assay IC50, Nthy-ori 3-1
Experimental: as §2, §3, §4

[9] = Solubility of triclosan (PubChem); type: physicochemical; details: 20 °C; equivalent of 10 mg/L; ref PubChem
[10] = current study, n ≥ 3, hematin pre-treated cells, NA = not active up to the highest tested concentration, read-out: Lumi assay IC50, HEK-TPOA7
[11] = current study, n ≥ 3, pH 7.2, 40 µM H2O2, NA = not active up to the highest tested concentration, read-out: AUR assay IC50, HEK-TPOA7
[12] = lysate of cells with hematin pre-treatment, unit inferred, read-out: IC50, HEK-TPOA7, AUR assay, hematin +
[13] = lysate of cells without hematin pre-treatment, unit inferred, read-out: IC50, HEK-TPOA7, AUR assay, hematin -
[14] = read-out: IC50, AUR assay, H2O2 300uM, HEK-TPOA7 lyzate, n=2, unit not given in Table S6
[15] = read-out: IC50, FRTL-5, Lumi assay, hematin +, lysate of cells with hematin pre-treatment, unit inferred
[16] = read-out: Lumi assay IC50, FRTL-5, current study, n ≥ 3, NA = not active up to the highest tested concentration
[17] = lysate of cells without hematin pre-treatment, unit inferred, read-out: IC50, HEK-TPOA7, Lumi assay, hematin -
[18] = IC50, AUR assay, H2O2 300uM, HEK-TPOA7 lyzate, n=2, unit not given in Table S6
[19] = read-out: Lumi assay IC50, HEK293T, current study, PTU n = 2
[20] = IC20 shown where IC50 was not reached, read-out: AUR assay IC20, HEK-TPOA7

IC50 [3] [µM]	Compound	IC50 [1, 10] [µM]	IC50 [2, 11] [µM]	IC50 [2, 12] [µM]	IC50 [2, 13] [µM]	IC50 (TPO (CHO-TPO)) [µM]	IC50 (TPO (LentiX-TPO)) [µM]	IC50 [4, 15] [µM]	IC50 [4, 16] [µM]	IC50 [2, 18] [µM]	IC50 [5, 19] [µM]	further results
120	CC(C)(c1ccc(O)cc1)c1ccc(O)cc1 [BPA, Bisphenol A]	130		10.6	8.29			166	143	10.9	122	IC50 [1, 17]: 107 µM
	S=C1NCCN1 [ETU, Ethylene thiourea]											TPO inhibition in rat thyroid-based AUR assay (ToxCast) [6]: quantifiable IC50
3.91	Cn1cc[nH]c1=S [MMI, Methimazole, reference compound]	3.24	1.5	1.5	1.12	0.49	0.23	3.59	3.69	1.33		IC50 [7]: 4 µM; IC50 (TPO (Nthy-ori 3-1)): 2.7 µM
	O=C(O)C(F)(F)C(F)(F)C(F)(F)C(F)(F)C(F)(F)C(F)(F)C(F)(F)F [PFOA, Perfluorooctanoic acid]											IC20 ([1]; IC20 shown where IC50 was not reached): 110 µM; IC20 [2, 20]: 5.15 µM
11.7	CCCc1cc(=O)[nH]c(=S)[nH]1 [PTU, 6-propylthiouracil, reference compound]					4.9	10.4	12.5	13.2		18.9	IC50 [7]: 16.4 µM; IC50 (TPO (Nthy-ori 3-1)): 35.2 µM
	Cc1cc(NS(=O)(=O)c2ccc(N)cc2)no1 [SMX, Sulfamethoxazol, reference compound]											IC20 ([2]; HEK-TPOA7 lyzate, n=2, starred chemicals, unit not given in Table S6, read-out: IC20, AUR assay, H2O2 300uM): 140 µM; IC20 [2, 20]: 101 µM
	CC(C)(c1cc(Br)c(O)c(Br)c1)c1cc(Br)c(O)c(Br)c1 [TBBPA, Tetrabromobisphenol A]	90.9	8.65	8.65	8.2			190	130		64.4	IC50 [1, 17]: 107 µM; IC50 [2, 14]: 6.5 µM; IC50 ([5]; read-out: IC50, HEK293T, Lumi assay, hematin +, lysate of cells with hematin pre-treatment, unit inferred): 87.1 µM; IC50 [8]: 77.2 µM
	Oc1cc(Cl)ccc1Oc1ccc(Cl)cc1Cl [TCS, Triclosan]	38.4		197		> 253	> 253	46.2	67.9	165	47.8	IC50 ([2]; HEK-TPOA7, pH 8.8 (SD = 14), read-out: AUR assay IC50 at higher pH): 72.7 µM; solubility (equivalent) [9]: 34.5 µM; IC50 [8]: 51 µM

Compound	IC50 [3] [µM]	IC50 [1, 10] [µM]	IC50 [2, 11] [µM]	IC50 [2, 12] [µM]	IC50 [2, 13] [µM]	IC50 (TPO (CHO-TPO)) [µM]	IC50 (TPO (LentiX-TPO)) [µM]	IC50 [4, 15] [µM]	IC50 [4, 16] [µM]	IC50 [2, 18] [µM]	IC50 [5, 19] [µM]	further results
O=C(c1ccc(O)cc1O)c1ccc(O)cc1O [BP2, 2,2′-4,4′-tetrahydroxy benzophenone]	38.5	20.2	0.56	0.56	0.48	0.2	0.24	31.4	29.6			IC50 [2, 14]: 0.64 µM
Oc1cccc(O)c1 [RSC, Resorcinol]	13.8	17.9	0.358	0.36	0.36	0.05	0.06	13.9	15.7	0.61		IC50 ([2]; IC50, AUR assay, H2O2 40uM, HEK-TPOA7 lyzate, n=2, unit not given in Table S6): 0.36 µM

— PMC11272733, “In vitro assessment of thyroid peroxidase inhibition by chemical exposure: comparison of cell models and detection methods” (Archives of Toxicology, 2024)
